Results reported in patent publication US10660867B2, “Beta-hydroxyketones as topical active ingredients for the prevention or treatment of photodermatoses” (Merck Patent GmbH, priority 2015, dated 2020).

Tests used:
[1] = test system: test subjects with known PLE syndrome; test: in vivo comparative study, skin reactions on UVA irradiation of treated skin; parameters: key to skin reaction on UVA irradiation, treated skin: 0 denotes no reaction; ± denotes weak reaction; + denotes clear reaction; ++ denotes strong reaction; +++ denotes very strong reaction; details: for skin reaction on UVA irradiation, treated skin: 2.0% by wt. in O/W emulsion, 2 mg/cm^2 daily
Experimental: In the in vivo study described below, the following O/W emulsion is used:
A comparative study with positive control is carried out on 6 test subjects with known PLE syndrome. The study was carried out in Germany in April over a period of 5 days. The positive control was untreated, irradiated skin. The irradiation was carried out with 100% UVA light in a sub-erythemal dose, which was determined individually. The preparation was applied daily to half of the décolletage (2 mg/cm^2).
The measurements were carried out twice daily, 10 min. after application of the preparation and immediately after irradiation.
In the case of all test subjects, skin manifestations which have the presentation of polymorphic light eruption appeared on untreated skin. In case of 4 test subjects, no polymorphic light eruption was observed on treated skin. Only in the case of 2 test subjects was a weak reaction observed.

UV absorption spectrum = type: physicochemical
Excerpt: The absorption behaviour for the compound 3-(4-tert-butylphenyl)-3-hydroxy-1-(4-methoxy-phenyl)propan-1-one is depicted in FIG. 1 as representative.

[2] = photoconversion of compound A into the UVA filter avobenzone on irradiation; type: physicochemical
Excerpt: As representative of the compounds of the formula (I), the efficacy of 3-(4-tert-butylphenyl)-3-hydroxy-1-(4-methoxyphenyl)propan-1-one in vivo is confirmed in the experimental part, where the proportion of UVA filter formed by decomposition of 3-(4-tert-butylphenyl)-3-hydroxy-1-(4-methoxy-phenyl)propan-1-one on exposure to UV light under the selected conditions of the study is only 0.1% by weight.
Under the conditions of the in vivo study, conversion of compound A into the UVA filter avobenzone in an amount which could exert an influence on the skin appearances of the test subjects can be excluded.
This can be stated because if a 2% solution of compound A in Cosmacol® ELI (C12-13 alkyl lactate) is irradiated with UVA/UVB light (20/1) in a dose of 5 MED (corresponding to 250 kJ/m^2), 0.1% of avobenzone is formed by conversion.
Under the conditions of the in vivo experiment, a UVA dose of 20 J/cm^2 (corresponding to 200 kJ/m^2) is irradiated, i.e. even less than 0.1% of avobenzone will form by conversion under these conditions.

[3] = test system: transcription factor NF-κB; test: inhibition of activation of the transcription factor NF-κB
Excerpt: It is furthermore thought that the compounds of the formula (I), as described above or preferably described below, have an inflammation-inhibiting action. This property also supports the therapeutic and non-therapeutic treatment of photodermatosis. […] 1998, 95(6):729-31.

[4] = of 6 test subjects with known PLE syndrome, 5 days, UVA irradiation

With `COc1ccc(C(=O)CC(O)c2ccc(C(C)(C)C)cc2)cc1` (stereo not shown) [Compound A, 3-(4-tert-butylphenyl)-3-hydroxy-1-(4-methoxyphenyl)-propan-1-one] the “effect on manifestations of polymorphic light eruption on irradiation” value ([1]; 6 test subjects, treated vs untreated irradiated skin) was “suppresses or significantly reduces the manifestations of polymorphic light eruption”, the “test subjects with no polymorphic light eruption observed on treated skin” value [1, 4] was 4 test subjects and the “test subjects with weak reaction on treated skin” value [1, 4] was 2 test subjects. The “skin reaction on UVA irradiation, treated skin” value (“skin reaction on UVA irradiation” below) ([1]; test subject 1, day 1, after irradiation) was 0, the “skin reaction on UVA irradiation” value ([1]; test subject 1, day 1, before irradiation) was 0 and the “skin reaction on UVA irradiation” value ([1]; test subject 1, day 2, after irradiation) was 0. For the same compound, the “skin reaction on UVA irradiation” value ([1]; test subject 1, day 2, before irradiation) was 0, the “skin reaction on UVA irradiation” value ([1]; test subject 1, day 3, after irradiation) was 0 and the “skin reaction on UVA irradiation” value ([1]; test subject 1, day 3, before irradiation) was 0. For the same compound, the “skin reaction on UVA irradiation” value ([1]; test subject 1, day 4, after irradiation) was “±”, the “skin reaction on UVA irradiation” value ([1]; test subject 1, day 4, before irradiation) was “±” and the “skin reaction on UVA irradiation” value ([1]; test subject 1, day 5, after irradiation) was “±”. For the same compound, the “skin reaction on UVA irradiation” value ([1]; test subject 1, day 5, before irradiation) was “±”, the “skin reaction on UVA irradiation” value ([1]; test subject 2, day 1, after irradiation) was 0 and the “skin reaction on UVA irradiation” value ([1]; test subject 2, day 1, before irradiation) was 0. The “skin reaction on UVA irradiation” value ([1]; test subject 2, day 2, after irradiation) was 0, the “skin reaction on UVA irradiation” value ([1]; test subject 2, day 2, before irradiation) was 0 and the “skin reaction on UVA irradiation” value ([1]; test subject 2, day 3, after irradiation) was 0. For the same compound, the “skin reaction on UVA irradiation” value ([1]; test subject 2, day 3, before irradiation) was 0, the “skin reaction on UVA irradiation” value ([1]; test subject 2, day 4, after irradiation) was 0 and the “skin reaction on UVA irradiation” value ([1]; test subject 2, day 4, before irradiation) was 0. The “skin reaction on UVA irradiation” value ([1]; test subject 2, day 5, after irradiation) was 0, the “skin reaction on UVA irradiation” value ([1]; test subject 2, day 5, before irradiation) was 0 and the “skin reaction on UVA irradiation” value ([1]; test subject 3, day 1, after irradiation) was 0. For the same compound, the “skin reaction on UVA irradiation” value ([1]; test subject 3, day 1, before irradiation) was 0, the “skin reaction on UVA irradiation” value ([1]; test subject 3, day 2, after irradiation) was 0 and the “skin reaction on UVA irradiation” value ([1]; test subject 3, day 2, before irradiation) was 0. For the same compound, the “skin reaction on UVA irradiation” value ([1]; test subject 3, day 3, after irradiation) was 0, the “skin reaction on UVA irradiation” value ([1]; test subject 3, day 3, before irradiation) was 0 and the “skin reaction on UVA irradiation” value ([1]; test subject 3, day 4, after irradiation) was 0. For the same compound, the “skin reaction on UVA irradiation” value ([1]; test subject 3, day 4, before irradiation) was 0, the “skin reaction on UVA irradiation” value ([1]; test subject 3, day 5, after irradiation) was 0 and the “skin reaction on UVA irradiation” value ([1]; test subject 3, day 5, before irradiation) was 0. For the same compound, the “skin reaction on UVA irradiation” value ([1]; test subject 4, day 1, after irradiation) was 0, the “skin reaction on UVA irradiation” value ([1]; test subject 4, day 1, before irradiation) was 0 and the “skin reaction on UVA irradiation” value ([1]; test subject 4, day 2, after irradiation) was 0. The “skin reaction on UVA irradiation” value ([1]; test subject 4, day 2, before irradiation) was 0, the “skin reaction on UVA irradiation” value ([1]; test subject 4, day 3, after irradiation) was 0 and the “skin reaction on UVA irradiation” value ([1]; test subject 4, day 3, before irradiation) was 0. The “skin reaction on UVA irradiation” value ([1]; test subject 4, day 4, after irradiation) was 0, the “skin reaction on UVA irradiation” value ([1]; test subject 4, day 4, before irradiation) was 0 and the “skin reaction on UVA irradiation” value ([1]; test subject 4, day 5, after irradiation) was 0. The “skin reaction on UVA irradiation” value ([1]; test subject 4, day 5, before irradiation) was 0, the “skin reaction on UVA irradiation” value ([1]; test subject 5, day 1, after irradiation) was 0 and the “skin reaction on UVA irradiation” value ([1]; test subject 5, day 1, before irradiation) was 0. The “skin reaction on UVA irradiation” value ([1]; test subject 5, day 2, after irradiation) was 0, the “skin reaction on UVA irradiation” value ([1]; test subject 5, day 2, before irradiation) was 0 and the “skin reaction on UVA irradiation” value ([1]; test subject 5, day 3, after irradiation) was 0. The “skin reaction on UVA irradiation” value ([1]; test subject 5, day 3, before irradiation) was 0, the “skin reaction on UVA irradiation” value ([1]; test subject 5, day 4, after irradiation) was 0 and the “skin reaction on UVA irradiation” value ([1]; test subject 5, day 4, before irradiation) was 0. For the same compound, the “skin reaction on UVA irradiation” value ([1]; test subject 5, day 5, after irradiation) was 0, the “skin reaction on UVA irradiation” value ([1]; test subject 5, day 5, before irradiation) was 0 and the “skin reaction on UVA irradiation” value ([1]; test subject 6, day 1, after irradiation) was 0. For the same compound, the “skin reaction on UVA irradiation” value ([1]; test subject 6, day 1, before irradiation) was 0, the “skin reaction on UVA irradiation” value ([1]; test subject 6, day 2, after irradiation) was 0 and the “skin reaction on UVA irradiation” value ([1]; test subject 6, day 2, before irradiation) was 0. For the same compound, the “skin reaction on UVA irradiation” value ([1]; test subject 6, day 3, after irradiation) was “±”, the “skin reaction on UVA irradiation” value ([1]; test subject 6, day 3, before irradiation) was “±” and the “skin reaction on UVA irradiation” value ([1]; test subject 6, day 4, after irradiation) was “±”. For the same compound, the “skin reaction on UVA irradiation” value ([1]; test subject 6, day 4, before irradiation) was “±”, the “skin reaction on UVA irradiation” value ([1]; test subject 6, day 5, after irradiation) was “±” and the “skin reaction on UVA irradiation” value ([1]; test subject 6, day 5, before irradiation) was “±”. The “absorption in the UVA region” value (UV absorption spectrum; UVA, 320-400 nm) was “does not absorb in the UVA region”, the absorption (UV absorption spectrum; wavelength 215.5 nm) was 0.22 and the absorption (UV absorption spectrum; wavelength 273 nm) was 0.22. The “avobenzone formed by conversion” value ([2]; 2% solution in Cosmacol ELI (C12-13 alkyl lactate), UVA/UVB light (20/1), dose 5 MED (250 kJ/m^2)) was 0.1%, the “avobenzone formed by conversion” value ([2]; conditions of the in vivo experiment, UVA dose 20 J/cm^2 (200 kJ/m^2)) was “less than 0.1%” and the “proportion of UVA filter formed by decomposition on exposure to UV light” value ([2]; under the selected conditions of the study) was 0.1 % by weight. The “activation of the transcription factor NF-κB” value [3] was “inhibits activation”.
